Laboratory results: US20210292710A1, “METHOD FOR ENHANCING IMMUNE FUNCTION OF IMMUNE CELL AND IMMUNE CELL LINE PRODUCED USING THE SAME” (INDUSTRY-ACADEMIC COOPERATION FOUNDATION, YONSEI UNIVERSITY, priority 2020, published 2021)

Assays:
[1] = tested on: lung-cancer cell line LLC2; assay: Cancer cell killing ability of CD3+ T cells from PI3K inhibitor-treated mice, co-culture with lung-cancer cell line, annexin V/PI flow cytometry; type: cell-based, mouse
Experimental: First, 3 μg of a neoplasm lysate obtained from lung-cancer cell line LLC2 and 1 μg of an adjuvant LPS (lipopolysaccharide) are injected into 6 to 8 weeks old BALBc mice as an allogeneic model once a week in an intramuscular injection manner. At the same time, 50 mpk (mg/kg) of BKM-120 as a PI3K inhibitor (iPI3K) is orally administered to the mice belonging to the PI3K inhibitor-treated experimental group once a day.
Then, lymphocytes are separated from the splenocyte of the mouse subjected to the PI3K inhibitor for a total of 3 weeks. Only CD3+ T cells are obtained using a magnetic-activated cell sorter (MACS).
Then, the obtained CD3+ T cells are co-cultured for 24 hours together with the lung-cancer cell line from which the lysate is obtained. In this connection, a ratio between the numbers of the T cell and the lung-cancer cell line may be defined as 10 T cells: 1 lung-cancer cell line. Furthermore, the T cells and lung-cancer cell line are cultured under a normal condition, a hypoxic condition, and a low glucose condition, respectively, to identify cancer cell killing ability in poor tumor microenvironment.
Then, the co-cultured T cells and lung-cancer cell line are subjected to flow cytometry analysis using an apoptosis kit and CD3+ antibodies.
First, referring to (a) of FIG. 3A, the result of the cancer cell killing ability of the T cell under the normal condition due to the treatment of the PI3K inhibitor is shown. In this connection, the x-axis and y-axis indicate apoptosis using annexin V and PI (propidium iodine) as staining reagent, respectively.

GLUT1 = GLUT1 expression in T cells due to PI3K inhibitor and mTORC1 inhibitor treatment; type: cell-based; details: RAD001 as mTORC1 inhibitor, p<0.05
Description: Furthermore, referring to FIG. 8, AKT and GLUT1 expression levels in T cells due to PI3K inhibitor and mTORC1 inhibitor treatment are shown. In this connection, RAD001 is used as a mTORC1 inhibitor. Furthermore, referring to (b) of FIG. 8, the GLUT1 expression level in T cells due to PI3K inhibitor and mTORC1 inhibitor treatment is shown.

[2] = tested on: lung-cancer cell line LLC2; assay: Percentage of immune cells relative to lung-cancer cell line LLC2; type: in vivo
Description: Referring to FIG. 9B, the percentage of immune cells relative to the lung-cancer cell line LLC2 due to PI3K inhibitor treatment is shown. Referring first to FIG. 9B (a), the percentage of CD3+ CD8+ T cells relative to LLC2 as a lung-cancer cell line due to PI3K inhibitor treatment is shown. In this connection, CD3+ CD8+ T cells may refer to cytotoxic T cells (Tc cells) capable of destroying damaged cells, infected cells, and tumor cells. Next, referring to (b) of FIG. 9B, the percentage of CD3+ CD4+ CD25+ Foxp3 T cells relative to LLC2 as a lung-cancer cell line due to the PI3K inhibitor treatment is shown. In this connection, the CD3+ CD4+ CD25+ Foxp3 T cells refer to regulatory T cells (Treg) that may maintain immuno-tolerance and autoimmunity, that is, may inhibit the immune response of other cells. Next, referring to (c) of FIG. 9B, the percentage of CD3+ TIL cells relative to LLC2 as a lung-cancer cell line due to the PI3K inhibitor treatment is shown. In this connection, CD3+ TIL cell may refer to a tumor infiltrating lymphocyte (TIL) that infiltrates a tumor cell cluster, thereby enhancing the T cell's tumor killing ability, that is, an anti-cancer effect of the T cell. Next, referring to (d) of FIG. 9B, the percentage of MDSC cells relative to the lung-cancer cell line LLC2 due to the PI3K inhibitor treatment is shown. In this connection, the MDSC cell may refer to immature myeloid cells which inhibit the immune response of immune cells such as T cells and NK cells, and induce the generation of regulatory T cells (Treg), thereby to promote the growth of cancer cells.

[3] = tested on: lung-cancer cell line KLN205; assay: Anti-cancer effect (tumor size) in lung-cancer cell line KLN205; type: in vivo
Experimental: Referring to FIG. 10A, the results of the anti-cancer effect against the lung-cancer cell line KLN205 due to the PI3K inhibitor treatment are shown. When the cell is treated with the vehicle as a control, the tumor size rapidly increases as the treatment days increase, and then the tumor size on the 15th day is 400 to 500 mm^3. However, when the cell is treated with the PI3K inhibitor, the tumor size is reduced compared to the control. More specifically, when the cell is treated with the PI3K inhibitor BKM 120 at 35 mpk, the tumor size on the 15th day is 200 to 250 mm^3. When the cell is treated with BKM 120 at 50 mpk, the tumor size on day 15 is found to be 90 to 100 mm^3.

[4] = tested on: lung-cancer cell line KLN205; assay: Percentage of immune cells relative to lung-cancer cell line KLN205; type: in vivo
Description: Referring to FIG. 10B, the percentage of immune cells relative to the lung-cancer cell line KLN205 due to PI3K inhibitor treatment is shown. Referring first to FIG. 10B (a), the percentage of CD3+ CD8+ T cells relative to the lung-cancer cell line KLN205 due to PI3K inhibitor treatment is shown. Next, referring to (b) of FIG. 10B, the percentage of CD3+ CD4+ CD25+ Foxp3 T cells relative to lung-cancer cell line KLN205 due to PI3K inhibitor treatment is shown. Next, referring to (c) of FIG. 10B, the percentage of CD3+ TIL cells relative to the lung-cancer cell line KLN205 due to PI3K inhibitor treatment is shown. Next, referring to (d) of FIG. 10B, the percentage of MDSC cells relative to lung-cancer cell line KLN205 due to PI3K inhibitor treatment is shown.

[5] = hypoxic condition, 50 mpk BKM-120, 3 weeks, 24 hours co-culture
[6] = low glucose condition, 50 mpk BKM-120, 3 weeks, 24 hours co-culture
[7] = normal condition, 50 mpk BKM-120, 3 weeks, 24 hours co-culture

Nc1cc(C(F)(F)F)c(-c2cc(N3CCOCC3)nc(N3CCOCC3)n2)cn1 [BKM 120, buparlisib]
first quadrant (stained by both annexin V and PI, complete death of the cancer cell) [1, 5]: 47.4%
fourth quadrant (annexin V / PI) [1, 5]: 7.36%
second quadrant (annexin V / PI) [1, 5]: 26.7%
third quadrant (annexin V / PI) [1, 5]: 18.5%
first quadrant (stained by both annexin V and PI, complete death of the cancer cell) [1, 6]: 36.1%
fourth quadrant (annexin V / PI) [1, 6]: 3.71%
second quadrant (annexin V / PI) [1, 6]: 47.2%
third quadrant (annexin V / PI) [1, 6]: 13.1%
fourth quadrant (annexin V / PI) [1, 7]: 11.5%
second quadrant (annexin V / PI) [1, 7]: 15.5%
third quadrant (annexin V / PI) [1, 7]: 10.2%
first quadrant (stained by both annexin V and PI, complete death of the cancer cell) ([1]; normal condition, T cells from mice given 50 mpk BKM-120 orally once a day for 3 weeks, 10 T cells:1 LLC2, 24 hours): 62.8%
GLUT1 expression in iPI3K+/imTOR− group relative to iPI3K−/imTOR−, iPI3K−/imTOR+ and iPI3K+/imTOR+ groups (GLUT1): 6 to 7 times
average percentage of CD3+ CD4+ CD25+ Foxp3 T cells (Treg) ([2]; 35 mpk): 17%
average percentage of CD3+ CD8+ T cells ([2]; 35 mpk): 38%
average percentage of MDSC cells ([2]; 35 mpk): 32%
distribution of percentage of CD3+ CD4+ CD25+ Foxp3 T cells (Treg) ([2]; 35 mpk): 16 to 19%
distribution of percentages of CD3+ CD8+ T cells ([2]; 35 mpk): 35 to 42%
distribution of the percentage of MDSC cells ([2]; 35 mpk): 31 to 33%
percentage of CD3+ TIL cells on average ([2]; 35 mpk): 0.4%
average percentage of CD3+ CD4+ CD25+ Foxp3 T cells (Treg) ([2]; 50 mpk): 15%
average percentage of CD3+ CD8+ T cells ([2]; 50 mpk): 42%
average percentage of MDSC cells ([2]; 50 mpk): 24%
distribution of percentage of CD3+ CD4+ CD25+ Foxp3 T cells (Treg) ([2]; 50 mpk): 13 to 17%
distribution of percentages of CD3+ CD8+ T cells ([2]; 50 mpk): 37 to 50%
distribution of the percentage of MDSC cells ([2]; 50 mpk): 22 to 26%
percentage of CD3+ TIL cells on average ([2]; 50 mpk): 0.9%
tumor size ([3]; 35 mpk, 15th day): 200 to 250 mm^3
tumor size ([3]; 50 mpk, day 15): 90 to 100 mm^3
average percentage of CD3+ CD4+ CD25+ Foxp3 T cells ([4]; 35 mpk): 17%
average percentage of CD3+ CD8+ T cells ([4]; 35 mpk): 39%
average percentage of MDSC cells ([4]; 35 mpk): 24%
distribution of the percentage of CD3+ CD4+ CD25+ Foxp3 T cells ([4]; 35 mpk): 13 to 24%
distribution of the percentage of CD3+ CD8+ T cells ([4]; 35 mpk): 35 to 49%
distribution of the percentage of MDSC cells ([4]; 35 mpk): 23 to 25%
percentage of CD3+ TIL cells on average ([4]; 35 mpk): 5%
average percentage of CD3+ CD4+ CD25+ Foxp3 T cells ([4]; 50 mpk): 15%
average percentage of CD3+ CD8+ T cells ([4]; 50 mpk): 41%
average percentage of MDSC cells ([4]; 50 mpk): 18%
distribution of the percentage of CD3+ CD4+ CD25+ Foxp3 T cells ([4]; 50 mpk): 12 to 17%
distribution of the percentage of CD3+ CD8+ T cells ([4]; 50 mpk): 32 to 50%
distribution of the percentage of MDSC cells ([4]; 50 mpk): 17 to 19%
percentage of CD3+ TIL cells on average ([4]; 50 mpk): 6%
